Experimental data published in patent US8575364B2, “Modulators of serotonin receptor” (Janssen Pharmaceutica NV, priority 2008, dated 2013).
Counter-ions that a name gives are not always drawn.

How the values were obtained:
[1] = molecular target: r5-HT7 receptor (Rattus norvegicus (Rat), UniProt P32305); assay: HitHunter cAMP assay, agonistic testing; assay type: cell-based; conditions: HEK-293 cells stably transfected with r5-HT7 receptor
Method: (§1) Receptor binding was performed using membrane fractions prepared from the HEK-293 cell line recombinantly expressing rat 5-HT7 receptors (NCBI accession NM_022938). Compound affinity for the rat 5-HT7 receptor subtype was evaluated by competitive radioligand binding assays using 5-carboxamido[^3H]tryptamine ([^3H]5-CT) (Amersham Biosciences, cat. 90000403) detection. HitHunter™ cAMP assays are in-vitro based competitive immunoassays. The assay was performed on the HEK-293 cell line stably transfected with r5-HT7 receptor. Cells were pre-incubated with test compounds for 10 minutes. For agonistic testing, the concentration of test compound that produced a half-maximal response is represented by the EC50 value. Compounds were assayed in their free form or as salts, as indicated in the Examples section above.

[2] = molecular target: rat 5-HT7 receptors (Rattus norvegicus (Rat), UniProt P32305); assay: r5-HT7 competitive radioligand binding assay ([3H]5-CT); conditions: membrane fractions of HEK-293 cells recombinantly expressing rat 5-HT7
Method: as §1, with “Compound” for “Receptor binding was performed using membrane fractions prepared from the HEK-293 cell line recombinantly expressing rat 5-HT7 receptors (NCBI accession NM_022938). Compound”, “The assay was performed on the HEK-293 cell line stably transfected with r5-HT7 receptor.” left out

r5-HT7 receptor, sequence (P32305 1-435): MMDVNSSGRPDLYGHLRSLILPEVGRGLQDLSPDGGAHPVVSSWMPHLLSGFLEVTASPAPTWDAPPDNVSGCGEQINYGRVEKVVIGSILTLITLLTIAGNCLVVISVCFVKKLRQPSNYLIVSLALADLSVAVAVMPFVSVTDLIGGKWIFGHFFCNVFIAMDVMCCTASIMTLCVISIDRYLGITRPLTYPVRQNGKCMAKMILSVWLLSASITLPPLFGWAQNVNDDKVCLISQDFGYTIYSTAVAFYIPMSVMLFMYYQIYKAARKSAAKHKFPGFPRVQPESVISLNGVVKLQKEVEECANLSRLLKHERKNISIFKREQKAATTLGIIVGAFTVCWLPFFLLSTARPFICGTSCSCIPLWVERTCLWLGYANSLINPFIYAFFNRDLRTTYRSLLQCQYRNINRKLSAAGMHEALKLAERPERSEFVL
rat 5-HT7 receptors, sequence (P32305 1-435): as above

SMILES	EC50 [1] [nM]	Ki [2] [nM]
COc1ccc(-c2ccccc2C(F)(F)F)cc1OC1CNC1 [Example 1, 3-(4-Methoxy-2′-trifluoromethyl-biphenyl-3-yloxy)-azetidine]	200	3.79
COc1ccc(-c2cccc(C)c2C)cc1OC1CNC1 [Example 4, 3-(4-Methoxy-2′,3′-dimethyl-biphenyl-3-yloxy)-azetidine]	631	11
COc1ccc(-c2cccc(F)c2C)cc1OC1CNC1 [Example 5, 3-(3′-Fluoro-4-methoxy-2′-methyl-biphenyl-3-yloxy)-azetidine]	1580	19
COc1ccc(-c2ccccc2C)cc1OC1CNC1 [Example 8, 3-(4-Methoxy-2′-methyl-biphenyl-3-yloxy)-azetidine trifluoroacetate]	794	13.5
COc1ccc(-c2ccccc2Cl)cc1OC1CNC1 [Example 17, 3-(2′-Chloro-4-methoxy-biphenyl-3-yloxy)-azetidine]	794	4.42
Cc1cc(-c2ccc(Cl)cc2OC2CNC2)ccc1F [Example 41, 3-(4-Chloro-4′-fluoro-3′-methyl-biphenyl-2-yloxy)-azetidine]		470
Cc1ccc(-c2ccc(Cl)cc2OC2CNC2)cc1C [Example 42, 3-(4-Chloro-3′,4′-dimethyl-biphenyl-2-yloxy)-azetidine]		210
Clc1ccc(-c2ccccc2C2CCNC2)cc1 (stereo not drawn) [Example 56, 3-(4′-Chloro-biphenyl-2-yl)-pyrrolidine]		180
COc1ccc(-c2ccccc2)cc1OC1CCNCC1 [Example 68, 4-(4-Methoxy-biphenyl-3-yloxy)-piperidine]		1480
COc1ccc(-c2ccccc2C(F)(F)F)cc1OC1CCNCC1 [Example 69, 4-(4-Methoxy-2′-trifluoromethyl-biphenyl-3-yloxy)-piperidine]		59
